Data taken from article PMC7927014, “Novel Small Molecule Hsp90/Cdc37 Interface Inhibitors Indirectly Target K-Ras-Signaling” (Cancers, 2021).

Columns and labels:
K-RasG12V nanoclustering = assay: K-RasG12V nanoclustering-FRET (FLIM-FRET) in HEK cells; type: cell-based; settings: 24 h, conglobatin A 2 μM, salinomycin 1.3 μM, 17-AAG 2 μM, CAY10585 10 μM, hit compounds indicated concentrations
Procedure: In total, 80,000 HEK cells were seeded in 12-well plates containing sterilized 16-mm coverslips and 1 mL medium. The next day, the cells were transfected using jetPRIME or FuGENE HD transfection reagent. For the donor fluorophore-only samples, the cells were transfected with 500 ng mGFP-tagged RasG12V plasmid. For the nanoclustering-FRET pair samples, the cells were transfected with both the donor and acceptor constructs, i.e., pmGFP- and pmCherry- RasG12V at a plasmid ratio of 1:3, respectively, and a total of 800 ng plasmids. The next day, the cells were treated with either 0.1% DMSO vehicle control or the indicated concentrations of compounds diluted in DMEM or RPMI medium for 24 h. For the gene silencing studies, the cells were transfected with the indicated amounts of siRNAs, together with the FRET pair constructs. The plasmids and siRNA were diluted in the same jetPRIME transfection buffer, followed by the addition of jetPRIME. […] The lifetime of the mGFP donor fluorophore was measured using a fluorescence microscope (Zeiss AXIO Observer D1) equipped with a fluorescence lifetime imaging attachment (Lambert Instruments), as described previously in detail. The apparent FRET efficiency (Eapp) was calculated as Eapp = (1 − τDA/τD) × 100%, with the measured fluorescence lifetimes τDA of the FRET sample and the τD of the donor-only sample.

H-RasG12V nanoclustering = assay: H-RasG12V nanoclustering-FRET (FLIM-FRET) in HEK cells; type: cell-based; settings: 24 h, conglobatin A 2 μM, salinomycin 1.3 μM, CAY10585 10 μM
Procedure: In total, 80,000 HEK cells were seeded in 12-well plates containing sterilized 16-mm coverslips and 1 mL medium. The next day, the cells were transfected using jetPRIME or FuGENE HD transfection reagent. For the donor fluorophore-only samples, the cells were transfected with 500 ng mGFP-tagged RasG12V plasmid. For the nanoclustering-FRET pair samples, the cells were transfected with both the donor and acceptor constructs, i.e., pmGFP- and pmCherry- RasG12V at a plasmid ratio of 1:3, respectively, and a total of 800 ng plasmids. The next day, the cells were treated with either 0.1% DMSO vehicle control or the indicated concentrations of compounds diluted in DMEM or RPMI medium for 24 h. For the gene silencing studies, the cells were transfected with the indicated amounts of siRNAs, together with the FRET pair constructs. The plasmids and siRNA were diluted in the same jetPRIME transfection buffer, followed by the addition of jetPRIME. After 48 h of transfection, the cells were fixed in 4% paraformaldehyde for 10 to 15 min, before being mounted onto slides with Mowiol 4–88 (cat. no. 81381, Sigma-Aldrich). The lifetime of the mGFP donor fluorophore was measured using a fluorescence microscope (Zeiss AXIO Observer D1) equipped with a fluorescence lifetime imaging attachment (Lambert Instruments), as described previously in detail. The apparent FRET efficiency (Eapp) was calculated as Eapp = (1 − τDA/τD) × 100%, with the measured fluorescence lifetimes τDA of the FRET sample and the τD of the donor-only sample.

Gal3 = assay: Western blotting of galectin-3; type: cell-based; settings: Western blot, 24 h; K-RasG12V-transfected HEK and MDA-MB-231 cells
Procedure: The cells were trypsinized, washed with PBS, and lysed in RIPA buffer (cat no. 89900, ThermoFisher Scientific) containing protease and phosphatase inhibitors (cat. no. A32959, ThermoFisher Scientific) and 1 mM phenylmethylsulfonyl fluoride (PMSF). The cells in the RIPA buffer were placed on ice for 20 min, and were then sonicated in ice cold water for 5 min. The lysates were centrifuged at 4 °C, and their protein was quantified using a BCA kit (cat. no. 23225, ThermoFisher Scientific). Equal amounts of protein were separated by 10% SDS-PAGE, and were then transferred onto a nitrocellulose membrane (cat. no. NBA 083C001EA, Protran) using a wet transfer system (Bio-Rad) or semidry Transferblot Turbo Transfer System (Bio-Rad). After the transfer, the membranes were blocked for 30 min in 5% skimmed milk dissolved in 1× TBST, and then incubated with 1:2000 primary antibodies in 5% BSA in TBST at 4 °C overnight. […]
The next day, the membranes were washed three times in TBST for 10 min, and then incubated with secondary antibodies (1:5000) diluted in 5% skimmed milk in TBST for 1 h at RT. […] The protein bands were detected with a ChemiDoc MP instrument (Bio-Rad) after treatment with an ECL reagent (cat. no. 170-5061, BioRad). […]

Hsp90/Cdc37 [1] = target: T1, Hsp90/Cdc37 (Homo sapiens, UniProt P07900); assay: Hsp90/Cdc37 split Renilla luciferase assay, full length Hsp90 (cell lysate; IC50 and 20 μM validation); type: biochemical; settings: MolPort Screening-3, tested concentration of drugs 20 μM
T1 construct: The Hsp90/Cdc37 split Renilla luciferase assay using the full length Hsp90 for the compound screening was described previously; expressed in transfected cells; host or cells: HEK293 EBNA cells, cleared lysates
Procedure: (§1) In the second in silico screening of the FIMM database, we employed the four identified chemical scaffolds (Figure S2B) for the visual inspection of the FIMM compound library. […] All of the purchased compounds were validated in vitro at 20 μM using the split Renilla luciferase assay.
(§2) The Hsp90/Cdc37 split Renilla luciferase assay using the full length Hsp90 for the compound screening was described previously. […] After 48 h, the cells were trypsinized and washed with PBS. The harvested cells were lysed in 1 mL of the 1x lysis buffer provided in the Renilla Luciferase Reporter Assay System Kit from Promega (cat. E2820), and were incubated on ice for 10 min. The cell lysates were then cleared by centrifugation at 13,000× g for 1 min. […] After this, the screening/test compounds or DMSO—as indicated—were added to each well. In total, 5 µL NRL-Hsp90- or NRL-N-Hsp90-lysate was added to each well, one row at a time. Subsequently, the plate was incubated for 5 min at room temperature (RT). […] Just before the reading, 20 µL assay buffer containing 2× Renilla luciferase substrate (coelenterazine) was added. For the FIMM screening, sample wells were read on a PHERAstar plate reader (BMG LABTECH) at a gain level of 4000, after 10 s shaking, using a hypomorph of NRL-Hsp90. For the subsequent validations of the compounds, sample wells with the above-described assay constructs were read using a synergy H1 Hybrid Multi-Mode reader (BioTek) in the luminescence detection mode, as described previously in detail.

Hsp90/Cdc37 [2] = assay: FIMM screening in split Renilla luciferase assay with hypomorphic NRL-Hsp90 construct, 20 μM; type: biochemical
Procedure: as §1, §2

Hsp90α (N-terminal) = target: T2, Hsp90α (N-terminal) (Homo sapiens, UniProt P07900); assay: Hsp90 N-terminal ATP-binding site competition assay (FITC-geldanamycin fluorescence polarization)
T2 construct: purchased BPS Bioscience 50298
Procedure: The reaction was initiated by adding 35 ng/μL purified recombinant Hsp90α, and was incubated at RT with slow shaking for 2 h. All of the reactions were performed in a black, low binding NUNC microtiter plate, included in the kit, and the total reaction volume was 50 μL. The enzyme control was measured without the test compound, and the enzyme background control was measured without the test compound or Hsp90α. […] All of the controls and the blank contained 10% DMSO, as did all of the samples of the test compounds. All of the samples were analyzed as duplicates. […] The blank value was subtracted from all of the other values, and the fluorescence polarization was determined as:(1) mP = ((III − I⊥)/(III+ I⊥)) × 1000 where III is the intensity of the parallel, and I┴ the intensity of the perpendicular polarized light.

MDA-MB-231 cells = assay: 2D cell proliferation (alamarBlue); type: cell-based; settings: Homo sapiens, MDA-MB-231, 72 h
Procedure: Per well, 500–700 cells were seeded in 96-well flat bottom culture plates in 100 µL. After 24 h, the cells were treated with 0.1% DMSO vehicle control or test compounds diluted in a medium using a 1:2 dilution-series, starting at 100 µM. The plates were further incubated for 72 h. The cell viability was measured after the addition of 10% alamarBlue reagent per well (cat. no. DAL1100, Thermo Fisher Scientific). The fluorescence intensity (excitation 560 nm and emission 590 nm) was measured after 4 h by the use of a H1 Hybrid Multi-Mode reader.

Hsp90, Hsp70 = assay: Western blotting of Hsp90 and Hsp70 (heat shock response); type: cell-based; settings: Western blot, 24 h; four cancer cell lines; 17-AAG 2 μM
Procedure: (§3) The cells in the RIPA buffer were placed on ice for 20 min, and were then sonicated in ice cold water for 5 min. […] Equal amounts of protein were separated by 10% SDS-PAGE, and were then transferred onto a nitrocellulose membrane (cat. no. NBA 083C001EA, Protran) using a wet transfer system (Bio-Rad) or semidry Transferblot Turbo Transfer System (Bio-Rad). After the transfer, the membranes were blocked for 30 min in 5% skimmed milk dissolved in 1× TBST, and then incubated with 1:2000 primary antibodies in 5% BSA in TBST at 4 °C overnight.
(§4) The next day, the membranes were washed three times in TBST for 10 min, and then incubated with secondary antibodies (1:5000) diluted in 5% skimmed milk in TBST for 1 h at RT. […] All of the antigens and molecular weights in kDa are labelled next to the blots on the figures. Uncropped Western blot data are attached as Figure S6.

HIF-1α = assay: Western blotting of HIF-1α in nuclear extracts; type: cell-based; settings: Western blot of nuclear extracts, 24 h; K-RasG12V-transfected HEK and MDA-MB-231 cells; conglobatin A 5 or 10 μM, 17-AAG 2 μM
Procedure: as §3, §4

| normalized RLU (Hsp90/Cdc37 [1]; RLU normalized to DMSO (=1.00)) | Average RLU (Hsp90/Cdc37 [1]; average of 3 wells (DMSO 248028)) [RLU] | normalized RLU (FIMM Screening-1) (Hsp90/Cdc37 [2]; DMSO = 1.00) | normalized RLU (FIMM Screening-2, scaffold based) (Hsp90/Cdc37 [2]; DMSO = 1.00) | Average RLU (FIMM Screening-1) (Hsp90/Cdc37 [2]; mean of 3 wells, DMSO 50019) [RLU] | Average RLU (FIMM Screening-2, scaffold based) (Hsp90/Cdc37 [2]; mean of 3 wells, DMSO 51006) [RLU] | competition with FITC-geldanamycin (ATP-pocket binding, polarization signal) (Hsp90α (N-terminal)) | IC50 (MDA-MB-231 cells) [nM] | SMILES | K-RasG12V nanoclustering-FRET (K-RasG12V nanoclustering) | H-RasG12V nanoclustering-FRET (H-RasG12V nanoclustering) | Gal3 levels (Gal3) | induction of Hsp90 or Hsp70 expression (heat shock response) (Hsp90, Hsp70) | nuclear levels of HIF-1α (HIF-1α) |
| --- | --- | --- | --- | --- | --- | --- | --- | --- | --- | --- | --- | --- | --- |
|  |  |  |  |  |  |  |  | COC(=O)c1ccc(O)c(NC(=O)COc2ccc(C34CC5CC(CC(C5)C3)C4)cc2)c1 [CAY10585] | selectively decreased | not H-RasG12V nanoclustering-FRET | decreased the Gal3 levels |  |  |
| 0.91 | 225640 | 0.89 | 0.89 | 44367 | 45379 | significantly reduced the signal | 1000 | C=CCNC1=C2C[C@@H](C)C[C@H](OC)[C@H](O)[C@@H](C)/C=C(\C)[C@H](OC(N)=O)[C@@H](OC)/C=C\C=C(/C)C(=O)NC(=CC1=O)C2=O [17-AAG, 17-allylamino-17-demethoxy-geldanamycin, reference compound] | same selectivity |  |  | increase in Hsp90 and, in particular, Hsp70 | decreased the nuclear levels of HIF-1α |
|  |  |  |  |  |  |  |  | CC[C@@H](C(=O)[C@@H](C)[C@@H](O)[C@H](C)[C@@H]1O[C@@H]([C@@H](CC)C(=O)O)CC[C@@H]1C)[C@H]1O[C@]2(C=C[C@@H](O)[C@]3(CC[C@@](C)([C@H]4CC[C@](O)(CC)[C@H](C)O4)O3)O2)[C@H](C)C[C@@H]1C [salinomycin] | blocks K-RasG12V- | not H-RasG12V-nanoclustering |  |  |  |
